The text below walks through data of patent US20220143006A1, “METHODS OF TREATING CANCER WITH FARNESYLTRANSFERASE INHIBITORS” (Kura Oncology, Inc., priority 2019, published 2022).

For series [1], the system named is tumors in nude mice. The settings on record: cited from earlier work.
The test system of series [2] is Ras-dependent and -independent malignant tumors. The settings on record: cited from earlier work.
For series [3], the system named is PTCL, not otherwise specified (PTCL-NOS). In words: Phase 2 clinical study of tipifarnib in PTCL: objective response by KIR mutation status, PTCL-NOS patients. The series is classed as in vivo, human. Particulars: FIG. 6, PTCL-NOS patients (N=9) with Q386E mutant of KIR3DL2. The procedure:
(§1) This example describes an ongoing Phase 2 clinical study of tipifarnib with the primary objective being to assess the antitumor activity in terms of Overall Response Rate (ORR) of tipifarnib in approximately 18-30 eligible subjects eligible subjects with Peripheral T-Cell Lymphoma (PTCL) (ClinicalTRials.gov identifier: NCT02464228).
(§2) Subjects receive tipifarnib administered at a starting dose of 300 mg, orally with food, twice a day (bid) on Days 1-21 in 28 day cycles (i.e. 3 weeks on/1 week off). Stepwise 100 mg dose reductions to control treatment-related, treatment-emergent toxicities were also allowed. Subjects who received tipifarnib bid on days 1-7 and days 15-21 in 28 day cycles during the conduct of earlier versions of this protocol were permitted to remain on that dose regimen at the discretion of the investigator. Alternatively, the subject was permitted to transition to receive a dose of 300 mg, orally with food, bid on days 1-21 of 28 day treatment cycles beginning on Day 1 of their next cycle. In the absence of unmanageable toxicities, subjects may continue to receive tipifarnib treatment for up to 12 months in the absence of disease progression and unmanageable toxicity. Treatment was permitted to continue beyond 12 months upon agreement of the Investigator and Sponsor.
(§3) Tumor assessments are performed at screening, at the Day 22 visit (±5 days) performed during Cycles 2, 4, 6 and once every approximately 12 weeks (cycles 9, 12, 15, etc.) thereafter, until disease progression.
(§4) Determination of objective tumor response is performed based on the Lugano Classification (Cheson 2014, Appendix II: The Lugano Classification) and/or measurable cutaneous disease according to the modified Severity Weighted Assessment Tool (mSWAT, Olsen 2011, Appendix III: Modified Severity Weighted Assessment Tool).
Primary outcome measures: objective response rate (ORR) following treatment with tipfarnib. [Time Frame: 2 years]. Response assessments according to IWC and/or mSWAT. […]

Series [4] relates to relapsed or refractory Peripheral T-Cell Lymphoma (PTCL). The series can be described thus: Phase 2 clinical study of tipifarnib in PTCL (NCT02464228): objective response by KIR mutation status, PTCL-NOS and AITL patients together. The series is classed as in vivo, human. Here is the method: as §1, §2, §3, §4
(§5) Primary outcome measures: objective response rate (ORR) following treatment with tipfarnib. [Time Frame: 2 years]. Response assessments according to IWC and/or mSWAT.
(§6) This Phase II study investigates the antitumor activity in terms of ORR of tipifarnib in approximately 18-30 eligible subjects with relapsed or refractory PTCL. The first 18 subjects were permitted to have the following PTCL sub-types: PTCL, not otherwise specified (PTCL-NOS), angioimmunoblastic T-cell lymphoma (AITL), ALK-positive and -negative anaplastic large cell lymphoma (ALCL), hepatosplenic T-cell lymphoma, enteropathy-associate T-cell lymphoma (EATL), extranodal natural killer (NK) T-cell lymphoma, nasal type and subcutaneous panniculitis-like T-cell lymphoma. The AITL expansion cohort (N=12) enrolls only subjects with AITL. Only consented subjects who meet all eligibility criteria were enrolled in the study. Eligible subjects received tipifarnib administered at a starting dose of 300 mg, orally with food, twice a day (bid) on Days 1-21 in 28 day cycles (i.e. 3 weeks on/1 week off). Stepwise 100 mg dose reductions to control treatment-related, treatment-emergent toxicities were also allowed. Subjects who received tipifarnib bid on days 1-7 and days 15-21 in 28 day cycles during the conduct of earlier versions of this protocol were permitted to remain on that dose regimen at the discretion of the investigator. Alternatively, the subject was permitted to transition to receive a dose of 300 mg, orally with food, bid on days 1-21 of 28 day treatment cycles beginning on Day 1 of their next cycle. In the absence of unmanageable toxicities, subjects may continue to receive tipifarnib treatment for up to 12 months in the absence of disease progression and unmanageable toxicity. Treatment was permitted to continue beyond 12 months upon agreement of the Investigator and Sponsor.
(§7) A two-stage study design was used for the first 18 subjects in order to minimize the number of study subjects treated if tipifarnib were considered not sufficiently efficacious to grant further development in this subject population. […]

In series [5] the test system is angioimmunoblastic T-cell lymphoma (AITL). In words: Phase 2 clinical study of tipifarnib in PTCL: objective response by KIR mutation status, AITL patients. The series is classed as in vivo, human. Here is the method: as §1, §2, §3, §4, §5, §6, §7
In series [6] the test system is unselected tumor populations (AML, MDS/CMML, urothelial cancer, breast cancer, PTCL/CTCL). Particulars: single agent therapy, in man; cited from earlier work.
[7] abbreviates: FIG. 6, 14 patients with Q386E mutant of KIR3DL2 (PTCL-NOS N=9, AITL N=5).
The mark [8] stands for this setting: FIG. 6, patients (N=13) with wild type (wt) KIR3DL2 at position 386.
Setting [9] is: AITL, KIR3DL2 C336R/Q386E mutant, N=8.
The mark [10] stands for this setting: FIG. 1, 9 AITL patients, carriers of D184N mutant of KIR2DL1.
Setting [11] is: FIG. 2, 9 AITL patients, carriers of E295D mutant of KIR2DL3.
Setting [12] is: FIG. 2, 9 AITL patients, carriers of R162T mutant of KIR2DL3.
Where [13] appears, read: FIG. 3, 9 AITL patients, carriers of Q149K, Q149R, and I154M mutants of KIR2DL4.
Setting [14] is: FIG. 5, 9 AITL patients, carriers of C336R and Q386E mutants of KIR3DL2.
Where [15] appears, read: FIG. 6, AITL patients (N=5) with Q386E mutant of KIR3DL2.
[16] abbreviates: FIG. 7, subset of 10 AITL patients, carriers of C336R and Q386E mutants of KIR3DL2.

Entries after “also recorded” stand apart in the source; their conditions may differ.

For `CC[C@H](C)[C@@H](CO[C@@H](Cc1ccccc1)C(=O)N[C@@H](CCS(C)(=O)=O)C(=O)O)NC[C@@H](N)CS` [L-739749, 2(S)-[2(S)-[2(R)-amino-3-mercapto]propylamino-3(S)-methyl]-pentyloxy-3-phenylpropionyl-methionine sulfone], the system toxicity entry in series [1] (mouse, in vivo) is given as “without system toxicity”. Moreover, the antitumor activity result in series [1] (nude mice) is “potent antitumor activity”.
For the molecule `NC(=O)N1CCC(CC(=O)N2CCC([C@H]3c4ncc(Br)cc4CCc4cc(Cl)cc(Br)c43)CC2)CC1` [lonafarnib, (+)-(R)-4-[2-[4-(3,10-dibromo-8-chloro-5,6-dihydro-11H-benzo[5,6]cyclohepta[1,2-b]pyridin-11-yl)piperidin-1-yl]-2-oxoethyl]piperidine-1-carboxamide], the “activity in malignant tumors” value in series [2] was “active”.
On to `Cn1cncc1[C@@](N)(c1ccc(Cl)cc1)c1ccc2c(c1)c(-c1cccc(Cl)c1)cc(=O)n2C` [tipifarnib, (B)-6-[amino(4-chlorophenyl)(1-methyl-1H-imidazol-5-yl)methyl]-4-(3-chlorophenyl)-1-methyl-2(1H)-quinolinone], for which, in series [3], the ORR came out at 11%, the “objective responses: number of CR” value was found to be 1 and the “objective responses: number of progressive disease (PD)” value came out at 8. Besides, in series [4] (setting [7]), the ORR was determined as 36%, the “objective responses: number of CRs” value is reported as 3, the “objective responses: number of PDs” value is recorded as 8 and the “objective responses: number of PRs” value amounted to 2. Besides, the “objective responses: number of SD” value in series [4] (setting [7]) is 1. In addition, in series [4] (setting [8]), the ORR was found to be 8%, the “objective responses: number of PD” value turned out to be 9, the “objective responses: number of PR” value came to 1 and the “objective responses: number of SD” value is 3. For the same molecule, in series [5] (AITL, KIR3DL2 C336R/Q386E mutant), the “Clinical Benefit Rate (CR + PR + SD), patients/N” value is given as 8/8. Also, in series [5] (setting [9]), the “Clinical Benefit Rate (CR + PR + SD)” value is reported as 100%; the “Overall Best Response: Complete Response (CR), number of patients” value is 4; the “Overall Best Response: Partial Response (PR), number of patients” value is given as 2; the “Overall Best Response: Stable Disease (SD), number of patients” value stood at 2. Besides, in series [5] (setting [9]), the “Overall Response Rate (CR + PR)” value is on record as 75%. Moreover, the “Clinical Benefit Rate (CR + PR + SD), patients/N” value in series [5] (AITL, KIR3DL2 wild type) is recorded as 2/7. Also, in series [5] (AITL, KIR3DL2 wild type, N=7), the “Clinical Benefit Rate (CR + PR + SD)” value came out at 29%; the “Overall Best Response: Partial Response (PR), number of patients” value turned out to be 2; the “Overall Best Response: Progressive Disease (PD), number of patients” value came to 5; the “Overall Response Rate (CR + PR)” value was determined as 29%. Further, in series [5] (setting [10]), the “objective responses: number of complete responses (CR)” value (shortened to “objective responses: number … (CR)”) stood at 2 and the “objective responses: number of partial responses (PR)” value (“objective responses: number … (PR)” for short) is recorded as 1. For the same molecule, in series [5] (FIG. 1, 9 AITL patients, carriers of F202L mutant of KIR2DL1), the “objective responses: number … (CR)” value is 2. Moreover, the “objective responses: number … (CR)” value in series [5] (FIG. 1, 9 AITL patients, carriers of G179R mutant of KIR2DL1) was 1. Moreover, the “objective responses: number … (PR)” value in series [5] (FIG. 1, 9 AITL patients, carriers of N178D mutant of KIR2DL1) is recorded as 1. Further, the “objective responses: number … (CR)” value in series [5] (FIG. 1, 9 AITL patients, carriers of R197T mutant of KIR2DL1) stood at 2. Further, in series [5] (setting [11]), the “objective responses: number … (CR)” value is listed as 1 and the “objective responses: number … (PR)” value was 1. Further, in series [5] (setting [12]), the “objective responses: number … (CR)” value stood at 2 and the “objective responses: number … (PR)” value came out at 1. Further, in series [5] (setting [13]), the “objective responses: number … (CR)” value was found to be 2 and the “objective responses: number … (PR)” value is listed as 2. Also, in series [5] (setting [14]), the “objective responses: number … (CR)” value is given as 2 and the “objective responses: number … (PR)” value was found to be 2. Further, in series [5] (setting [15]), the ORR worked out at 80%, the “objective responses: number … (CR)” value was found to be 2 and the “objective responses: number … (PR)” value was determined as 2. Moreover, in series [5] (setting [16]), the “objective responses: number … (CR)” value worked out at 4 and the “objective responses: number … (PR)” value turned out to be 2. In addition, in series [6], the safety and tolerability result is recorded as “manageable safety profile; also recorded: reasonably well tolerated in man”.
